Columns and labels:
[1] = Concentration required to kill 50% of V79-379A cells under N2 (in vitro); type: functional, Cricetulus griseus
[2] = Concentration required to kill 50% of aerobic V79-379A cells (in vitro); type: functional, Cricetulus griseus
[3] = Ratio of concentration required to kill 50% aerobic V79-379A cells C50(air) to that of concentration required to kill 50% of cells under N2 C50(N2) was determined; type: functional
[4] = Radiosensitization of hypoxic V79-379A cells was determined in vitro; expressed as concentration required to give enhancement ratio of 1.6

## O=[N+]([O-])c1nccn1CCC1CO1 (stereo not given)
[1]
  C50: 0.25 mM
[2]
  C50: 0.5 mM
[3]
  Ratio: 2

## CC(C)(C(O)Cn1ccnc1[N+](=O)[O-])N1CC1 (stereo not given)
[1]
  C50: 0.008 mM
[2]
  C50: 0.1 mM
[3]
  Ratio: 12.5
[4]
  C1.6: 0.07 mM

## O=[N+]([O-])c1nccn1[C@H]1CCC[C@@H](N2CC2)[C@@H]1O
[1]
  C50: 0.35 mM
[2]
  C50: 0.35 mM
[3]
  Ratio: 1
[4]
  C1.6: 0.45 mM

## CC(O)(CN1CC1)Cn1ccnc1[N+](=O)[O-] (stereo not given)
[1]
  C50: 0.02 mM
[2]
  C50: 0.55 mM
[3]
  Ratio: 27.5

## C[C@@H]([C@H](O)Cn1ccnc1[N+](=O)[O-])N1CC1
[1]
  C50: 0.01 mM
[2]
  C50: 0.2 mM
[3]
  Ratio: 20
[4]
  C1.6: 0.12 mM

## CC1CN1CC(O)Cn1ccnc1[N+](=O)[O-] (stereo not given)
[1]
  C50: 0.065 mM
[2]
  C50: 0.79 mM
[3]
  Ratio: 12.2
[4]
  C1.6: 0.08 mM

## O=[N+]([O-])c1nccn1[C@@H]1CCC[C@@H]2O[C@@H]21
[1]
  C50: 0.18 mM
[2]
  C50: 0.28 mM
[3]
  Ratio: 1.5

## CC1(Cn2ccnc2[N+](=O)[O-])CO1 (stereo not given)
[1]
  C50: 0.2 mM
[2]
  C50: 0.2 mM
[3]
  Ratio: 1

## O=[N+]([O-])c1nccn1CCCCC1CO1 (stereo not given)
[1]
  C50: 0.7 mM
[2]
  C50: 1.2 mM
[3]
  Ratio: 1.7

## O=[N+]([O-])c1nccn1CC(O)CCC1CO1 (stereo not given)
[1]
  C50: 0.4 mM
[2]
  C50: 0.6 mM
[3]
  Ratio: 1.5
[4]
  C1.6: 0.4 mM

## CC1OC1Cn1ccnc1[N+](=O)[O-] (stereo not given)
[1]
  C50: 3.3 mM
[2]
  C50: 10 mM
[3]
  Ratio: 3

## O=[N+]([O-])c1nccn1CC(O)C1CO1 (stereo not given)
[1]
  C50: 0.36 mM
[2]
  C50: 1.2 mM
[3]
  Ratio: 3.3
[4]
  C1.6: 0.2 mM

## O=[N+]([O-])c1nccn1CC(O)CN1CC1 (stereo not given)
[1]
  C50: 0.015 mM
[2]
  C50: 0.3 mM
[3]
  Ratio: 20
[4]
  C1.6: 0.1 mM

## O=[N+]([O-])c1ncc[nH]1 [AZOMYCIN]
[1]
  C50: 0.27 mM
[2]
  C50: 0.55 mM
[3]
  Ratio: 2
[4]
  C1.6: 0.25 mM
